Results taken from ChEMBL document CHEMBL4359853, “Antiproliferative activity of (R)-4'-methylklavuzon on hepatocellular carcinoma cells and EpCAM+/CD133+ cancer stem cells via SIRT1 and Exportin-1 (CRM1) inhibition” (Eur J Med Chem, 2019).
Calls of active or inactive are those of the source. The calls are words filed in the database; no cut-off is given here.

Tests used:
Huh-7 [1] = test: Cytotoxicity against human HuH7 cells assessed as reduction in cell viability measured after 48 to 72 hrs by MTT assay; type: functional, cell-based
Huh-7 [2] = test: Cytotoxicity against human HuH7 cells expressing positive EpCAM/CD133 assessed as reduction in cell viability measured after 48 hrs by MTT assay; type: functional, cell-based; conditions: Huh-7, 48 h
Huh-7 [3] = test: Cell cycle arrest in human HuH7 negative EpCAM/CD133 cells assessed as increase in accumulation at G2 phase at 10 uM measured after 48 hrs by propidium iodide staining based flow cytometry analysis; type: functional
Huh-7 [4] = test: Induction of apoptosis in human HuH7 negative EpCAM/CD133 cells assessed as increase in early apoptotic cells measured after 48 hrs by Annexin V-FITC/propidium iodide staining based flow cytometry analysis; type: functional, cell-based
Huh-7 [5] = test: Upregulation of p21 expression in human HuH7 cells at 1 to 3 uM measured after 24 to 72 hrs by SYBR-green based qPCR analysis; type: functional, cell-based
Huh-7 [6] = test: Upregulation of p27 expression in human HuH7 cells at 1 to 3 uM measured after 24 to 72 hrs by SYBR-green based qPCR analysis; type: functional, cell-based
Huh-7 [7] = test: Upregulation of p21 expression in human HuH7 cells expressing negative EpCAM/CD133 at 1 to 3 uM measured after 72 hrs by SYBR-green based qPCR analysis; type: functional, cell-based
Huh-7 [8] = test: Induction of apoptosis in human HuH7 cells assessed as change in cell morphology at 0.1 to 10 uM measured after 48 hrs by 2D microscopic analysis; type: functional, cell-based
Huh-7 [9] = test: Induction of apoptosis in human HuH7 cells expressing positive EpCAM/CD133 assessed as change in cell morphology at 0.1 to 10 uM measured after 48 hrs by 2D microscopic analysis; type: functional, cell-based
Huh-7 [10] = test: Induction of apoptosis in human HuH7 cells expressing negative EpCAM/CD133 assessed as change in cell number at 0.1 to 10 uM measured after 48 hrs by 2D microscopic analysis; type: functional, cell-based
Huh-7 [11] = test: Induction of apoptosis in human HuH7 cells assessed as loss of spheroid morphology at 62.5 uM measured after 48 hrs by inverted light microscopy based matrigel assay; type: functional, cell-based
Huh-7 [12] = test: Induction of apoptosis in human HuH7 cells expressing positive EpCAM/CD133 assessed as loss of spheroid morphology at 62.5 uM measured after 48 hrs by inverted light microscopy based matrigel assay; type: functional, cell-based
Homo sapiens [13] = species on record: Homo sapiens; test: Inhibition of Sirtuin/HDAC in human HUH7 cells assessed as decrease in enzymatic activity at 0.10 to 5 uM measured after 24 hrs relative to control; type: cell-based
Homo sapiens [14] = species on record: Homo sapiens; test: Inhibition of Sirtuin/HDAC in human HUH7 cells assessed as decrease in cell viability measured after 24 hrs; type: cell-based
Homo sapiens [15] = species on record: Homo sapiens; test: Inhibition of class 1/2 HDAC in human HuH7 nuclear extract at 0.1 to 81 uM after 24 hrs by fluorescence based assay
Homo sapiens [16] = species on record: Homo sapiens; test: Inhibition of Sirtuin/HDAC in human HuH7 cells expressing positive EpCAM/CD133 assessed as decrease in enzymatic activity at 0.10 to 5 uM measured after 24 hrs relative to control; type: cell-based
Homo sapiens [17] = species on record: Homo sapiens; test: Inhibition of Sirtuin/HDAC in human HuH7 cells expressing positive EpCAM/CD133 assessed as decrease in cell viability measured after 24 hrs; type: cell-based
Homo sapiens [18] = species on record: Homo sapiens; test: Inhibition of class 1/2 HDAC in human HuH7 EpCAM/CD133 positive cells nuclear extract at 0.1 to 81 uM after 24 hrs by fluorescence based assay
Huh-7 [19] = test: Induction of reactive oxygen species generation in human HuH7 cells at 1 uM measured after 24 hrs by DCFDA staining assay; type: functional, cell-based
Huh-7 [20] = test: Upregulation of SIRT1 in human HuH7 cells measured after 24 hrs by ELISA; type: functional, cell-based
Huh-7 [21] = test: Upregulation of SIRT1 in human HuH7 cells assessed as fold change at 1 uM measured after 24 hrs by ELISA relative to control; type: functional
Huh-7 [22] = test: Upregulation of SIRT1 in human HuH7 cells assessed as fold change at 3 uM measured after 24 hrs by ELISA relative to control; type: functional
HepG2 [23] = test: Cytotoxicity against human HepG2 cells assessed as reduction in cell viability measured after 72 hrs by MTT assay; type: functional, cell-based; conditions: HepG2, 72 h
[24] = target: Histone-lysine N-methyltransferase EZH2 (Homo sapiens) (UniProt Q15910); test: Activation of EZH2 in human HuH7 cells expressing positive EpCAM/CD133 assessed as upregulation of H3K27me3 expression measured after 4 hrs by Western blot analysis; type: cell-based
[25] = target: Exportin-1 (Homo sapiens) (UniProt O14980); test: Inhibition of CRM1 in human HepG2 cells assessed as accumulation of RIOK2 in nucleus at 0.1 to 10 uM measured after 6 hrs by DAPI staining based confocal microscopy analysis; type: cell-based
[26] = target: Exportin-1 (Homo sapiens) (UniProt O14980); test: Inhibition of CRM1 in human HuH7 cells assessed as accumulation of RIOK2 in nucleus at 1 and 10 uM measured after 24 hrs by DAPI staining based confocal microscopy analysis; type: cell-based
[27] = target: Exportin-1 (Homo sapiens) (UniProt O14980); test: Inhibition of CRM1 in human HuH7 cells assessed as accumulation of RIOK2 in nucleus at 0.1 to 10 uM measured after 6 hrs by DAPI staining based confocal microscopy analysis; type: cell-based
HepG2 [28] = test: Induction of apoptosis in human 3D HepG2 spheroids at 10 uM measured after 24 hrs by propidium iodide staining based immunofluorescence microscopy analysis; type: functional, cell-based
Huh-7 [29] = test: Cytotoxicity against human HuH7 cells negative EpCAM/CD133 assessed as reduction in cell viability measured after 24 hrs by MTT assay; type: functional, cell-based; conditions: Huh-7, 24 h
Huh-7 [30] = test: Cell cycle arrest in human HuH7 negative EpCAM/CD133 cells assessed as increase in accumulation at G1 phase at 10 uM measured after 48 hrs by propidium iodide staining based flow cytometry analysis; type: functional
Homo sapiens [31] = species on record: Homo sapiens; test: Inhibition of Sirtuin/HDAC in human HUH7 negative EpCAM/CD133 cells assessed as decrease in enzymatic activity at 0.10 to 5 uM measured after 24 hrs relative to control
Homo sapiens [32] = species on record: Homo sapiens; test: Inhibition of class 1/2 HDAC in human HuH7 negative EpCAM/CD133 cells nuclear extract at 0.1 to 81 uM after 24 hrs by fluorescence based assay

Chain of Exportin-1 (Homo sapiens) (O14980 whole entry): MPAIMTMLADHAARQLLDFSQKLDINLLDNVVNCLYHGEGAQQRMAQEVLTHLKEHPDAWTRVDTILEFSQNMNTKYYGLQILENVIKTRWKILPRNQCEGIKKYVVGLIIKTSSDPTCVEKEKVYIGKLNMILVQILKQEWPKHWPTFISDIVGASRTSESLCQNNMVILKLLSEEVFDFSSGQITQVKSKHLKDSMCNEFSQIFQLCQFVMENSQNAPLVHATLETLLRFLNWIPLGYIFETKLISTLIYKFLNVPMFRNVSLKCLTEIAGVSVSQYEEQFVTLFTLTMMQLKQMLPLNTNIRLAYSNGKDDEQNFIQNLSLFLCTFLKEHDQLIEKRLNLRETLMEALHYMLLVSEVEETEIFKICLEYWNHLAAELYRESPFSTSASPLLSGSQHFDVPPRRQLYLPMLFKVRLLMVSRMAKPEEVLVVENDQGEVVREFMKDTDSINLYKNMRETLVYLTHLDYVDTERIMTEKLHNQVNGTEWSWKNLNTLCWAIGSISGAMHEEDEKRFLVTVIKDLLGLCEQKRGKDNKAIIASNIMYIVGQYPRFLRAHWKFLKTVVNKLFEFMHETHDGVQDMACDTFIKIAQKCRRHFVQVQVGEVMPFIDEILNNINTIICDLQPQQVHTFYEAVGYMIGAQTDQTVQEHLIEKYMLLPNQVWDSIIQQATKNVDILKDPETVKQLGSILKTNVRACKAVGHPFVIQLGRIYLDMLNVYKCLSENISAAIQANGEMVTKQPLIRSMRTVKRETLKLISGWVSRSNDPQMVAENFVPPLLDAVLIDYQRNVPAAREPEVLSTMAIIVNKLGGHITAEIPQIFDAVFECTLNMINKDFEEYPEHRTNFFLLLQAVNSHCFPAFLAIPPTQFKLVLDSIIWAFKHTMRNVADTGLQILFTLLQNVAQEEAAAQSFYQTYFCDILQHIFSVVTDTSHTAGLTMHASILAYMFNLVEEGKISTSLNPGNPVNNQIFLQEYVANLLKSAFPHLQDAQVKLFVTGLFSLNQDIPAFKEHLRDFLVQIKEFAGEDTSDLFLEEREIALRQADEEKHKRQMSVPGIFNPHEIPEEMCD
Chain of Histone-lysine N-methyltransferase EZH2 (Homo sapiens) (Q15910 whole entry, looked up): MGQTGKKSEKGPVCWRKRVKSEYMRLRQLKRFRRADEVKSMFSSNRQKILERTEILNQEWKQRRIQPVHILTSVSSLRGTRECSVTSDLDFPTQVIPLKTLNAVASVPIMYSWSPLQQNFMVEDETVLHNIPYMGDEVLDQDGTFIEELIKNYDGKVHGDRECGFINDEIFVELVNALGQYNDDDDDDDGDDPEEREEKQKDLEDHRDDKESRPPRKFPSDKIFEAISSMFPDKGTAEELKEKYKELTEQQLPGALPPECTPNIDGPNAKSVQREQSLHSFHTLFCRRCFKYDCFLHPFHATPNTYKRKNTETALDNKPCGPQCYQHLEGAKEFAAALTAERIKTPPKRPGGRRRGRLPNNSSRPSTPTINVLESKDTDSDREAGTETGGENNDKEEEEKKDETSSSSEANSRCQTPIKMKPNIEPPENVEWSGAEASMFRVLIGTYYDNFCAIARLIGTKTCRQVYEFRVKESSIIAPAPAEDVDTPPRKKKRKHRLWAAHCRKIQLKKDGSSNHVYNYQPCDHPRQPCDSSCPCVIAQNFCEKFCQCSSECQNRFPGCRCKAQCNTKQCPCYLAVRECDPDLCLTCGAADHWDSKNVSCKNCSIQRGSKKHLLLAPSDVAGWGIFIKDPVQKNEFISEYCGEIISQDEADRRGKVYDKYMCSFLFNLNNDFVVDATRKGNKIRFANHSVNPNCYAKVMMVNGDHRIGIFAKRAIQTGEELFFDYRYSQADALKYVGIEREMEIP

How did the IC50 (Huh-7 [1]) turn out when `Cc1ccc([C@H]2CC=CC(=O)O2)c2ccccc12` was run?
The IC50 was 1250 nM.

And the IC50 (Huh-7 [2])?
The IC50 was 2500 nM.

What about the Activity (Huh-7 [3]) of the same molecule?
Its Activity is “Active”.

And the Activity (Huh-7 [4])?
Its Activity is “Dose-dependent effect”.

What about the Activity (Huh-7 [5]) of the same molecule?
The Activity was “Active”.

What about the Activity (Huh-7 [6]) of the same molecule?
Its Activity is “Active”.

And the Activity (Huh-7 [7])?
Its Activity is “Active”.

And the Activity (Huh-7 [8])?
Its Activity is “Active”.

What about the Activity (Huh-7 [9]) of the same molecule?
Its Activity is “Active”.

And the Activity (Huh-7 [10])?
The Activity was “Active”.

What about the Activity (Huh-7 [11]) of the same molecule?
Its Activity is “Active”.

And the Activity (Huh-7 [12])?
Its Activity is “Active”.

And the inhibition (Homo sapiens [13])?
The inhibition was 35 to 40%.

And the inhibition (Homo sapiens [14])?
Its inhibition is “Active”.

And the inhibition (Homo sapiens [15])?
The inhibition was “inactive”.

What about the inhibition (Homo sapiens [16]) of the same molecule?
The inhibition was 32 to 39%.

What about the inhibition (Homo sapiens [17]) of the same molecule?
Its inhibition is “Active”.

And the inhibition (Homo sapiens [18])?
The inhibition was “inactive”.

What about the Activity (Huh-7 [19]) of the same molecule?
Its Activity is “Active”.

What about the Activity (Huh-7 [20]) of the same molecule?
Its Activity is “Dose-dependent effect”.

And the “fold change (FC)” value (Huh-7 [21])?
Its value is 3.3.

What about the “fold change (FC)” value (Huh-7 [22]) of the same molecule?
The value was 3.9.

And the IC50 (HepG2 [23])?
The IC50 was 100 nM.

And the Activity [24]?
Its Activity is “Active”.

What about the inhibition [25] of the same molecule?
Its inhibition is “Active”.

And the inhibition [26]?
Its inhibition is “Active”.

What about the inhibition [27] of the same molecule?
The inhibition was “Active”.

What about the Activity (HepG2 [28]) of the same molecule?
The Activity was “Active”.

What about the IC50 (Huh-7 [29]) of the same molecule?
Its IC50 is 10000 nM.

And the Activity (Huh-7 [30])?
The Activity was “Active”.

What about the Activity (Homo sapiens [31]) of the same molecule?
Its Activity is “Active”.

And the Activity (Homo sapiens [32])?
The Activity was “inactive”.
